Experimental data: US6906033B2, “Protease inhibitor peptides” (SCIOS NOVA, Inc., priority 1995, dated 2005)

How the values were obtained:
[1] = Acute porcine cardiopulmonary bypass (CPB) model, postoperative bleeding; assay type: in vivo; conditions: pigs
Experimental: A randomized, double-blinded study using an acute porcine cardiopulmonary bypass (CPB) model was used to investigate the effect of KPI185-1 on postoperative bleeding. Sixteen pigs (55-65 kg) underwent 60 minutes of hypothermic (28° C.) open-chest CPB with 30 minutes of cardioplegic cardiac arrest. Pigs were randomized against a control solution of physiological saline (NS; n=8) or KPI-185 (n=8) groups. During aortic cross-clamping, the tricuspid valve was inspected through an atriotomy which was subsequently repaired. Following reversal of heparin with protamine, dilateral thoracostomy tubes were placed and shed blood collected for 3 hours. Shed blood volume and hemoglobin (Hgb) loss were calculated from total chest tube output and residual intrathoracic blood at time of sacrifice.

[2] = molecular target: T1, activated factor XII (Homo sapiens, UniProt P00748); conditions: cited from earlier work
T1 sequence (P00748 373-615 limits assumed): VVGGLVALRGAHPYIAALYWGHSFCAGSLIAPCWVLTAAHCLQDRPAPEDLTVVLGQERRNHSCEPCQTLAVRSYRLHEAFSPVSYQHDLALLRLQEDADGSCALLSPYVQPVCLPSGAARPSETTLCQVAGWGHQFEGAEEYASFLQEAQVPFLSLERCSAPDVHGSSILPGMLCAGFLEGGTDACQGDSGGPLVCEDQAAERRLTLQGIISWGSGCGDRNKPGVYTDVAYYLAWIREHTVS

[3] = test system: elastase; conditions: cited from earlier work
[4] = CPB; cited from earlier work

| Substance | Total Hgb loss ([1]; after CPB, p=0.0005 vs. saline) | Thoracostomy drainage Hgb ([1]; at 30 minutes, p=0.004 vs. control) | Thoracostomy drainage Hgb ([1]; at 60 minutes, p=0.0002 vs. control) | Total blood loss ([1]; shed blood collected for 3 hours after CPB plus residual intrathoracic blood, p=0.009 vs. saline) | inhibition of activated factor XII [2] | inhibition of elastase [3] | blood loss following bypass [4] | neutrophil activation [4] |
| --- | --- | --- | --- | --- | --- | --- | --- | --- |
| KPI (−4→57; M15A, S17F) DD185: KPI (−4→57) variant with M15A, S17F, found by phage display on kallikrein, expressed in yeast from pDD185 | 13.59±4.26 gm | 4.41±1.45 gm/dl | 5.26±1.04 gm/dl | 245.75 ± 66.24 mL |  |  |  |  |
| aprotinin |  |  |  |  | does not inhibit activated factor XII | neither native aprotinin nor native KPI significantly inhibits elastase | significant reduction in blood loss | does not appear to significantly reduce neutrophil activation |
